Source: publication PMC6423038, “Deferiprone: Pan-selective Histone Lysine Demethylase Inhibition Activity and Structure Activity Relationship Study” (Scientific Reports, 2019)

Assays:
[1] = target: KDM7B (PHF8) (Homo sapiens, UniProt Q9UPP1); experiment: KDM cell-free assay (AlphaScreen, BPS Bioscience)
[2] = target: KDM5C (Jarid1C) (Homo sapiens, UniProt P41229); experiment: KDM cell-free assay (AlphaScreen, BPS Bioscience)
[3] = target: KDM1A (LSD1) (Homo sapiens, UniProt O60341); experiment: KDM cell-free assay (AlphaScreen, BPS Bioscience)
[4] = target: KDM4E (JMJD2E) (Homo sapiens, UniProt B2RXH2); experiment: KDM cell-free assay (AlphaScreen, BPS Bioscience)
Chain of KDM4E (JMJD2E) (B2RXH2 whole entry): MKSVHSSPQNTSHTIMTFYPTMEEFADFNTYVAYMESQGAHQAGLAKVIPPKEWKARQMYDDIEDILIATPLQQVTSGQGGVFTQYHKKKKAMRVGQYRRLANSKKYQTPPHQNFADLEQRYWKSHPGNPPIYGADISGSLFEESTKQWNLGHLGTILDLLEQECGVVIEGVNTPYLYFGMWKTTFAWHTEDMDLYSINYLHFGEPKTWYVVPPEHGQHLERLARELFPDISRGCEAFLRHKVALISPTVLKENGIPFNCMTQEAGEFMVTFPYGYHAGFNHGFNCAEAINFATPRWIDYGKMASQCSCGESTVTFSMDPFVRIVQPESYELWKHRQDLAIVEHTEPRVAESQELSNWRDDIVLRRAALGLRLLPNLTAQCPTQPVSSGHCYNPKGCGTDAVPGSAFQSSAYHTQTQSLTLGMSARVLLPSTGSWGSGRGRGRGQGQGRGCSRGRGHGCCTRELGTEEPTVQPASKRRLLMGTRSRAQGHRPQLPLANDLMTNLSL

[5] = target: KDM6B (JMJD3) (Homo sapiens, UniProt O15054); experiment: KDM cell-free assay (AlphaScreen, BPS Bioscience)
Chain of KDM6B (JMJD3) (O15054 whole entry): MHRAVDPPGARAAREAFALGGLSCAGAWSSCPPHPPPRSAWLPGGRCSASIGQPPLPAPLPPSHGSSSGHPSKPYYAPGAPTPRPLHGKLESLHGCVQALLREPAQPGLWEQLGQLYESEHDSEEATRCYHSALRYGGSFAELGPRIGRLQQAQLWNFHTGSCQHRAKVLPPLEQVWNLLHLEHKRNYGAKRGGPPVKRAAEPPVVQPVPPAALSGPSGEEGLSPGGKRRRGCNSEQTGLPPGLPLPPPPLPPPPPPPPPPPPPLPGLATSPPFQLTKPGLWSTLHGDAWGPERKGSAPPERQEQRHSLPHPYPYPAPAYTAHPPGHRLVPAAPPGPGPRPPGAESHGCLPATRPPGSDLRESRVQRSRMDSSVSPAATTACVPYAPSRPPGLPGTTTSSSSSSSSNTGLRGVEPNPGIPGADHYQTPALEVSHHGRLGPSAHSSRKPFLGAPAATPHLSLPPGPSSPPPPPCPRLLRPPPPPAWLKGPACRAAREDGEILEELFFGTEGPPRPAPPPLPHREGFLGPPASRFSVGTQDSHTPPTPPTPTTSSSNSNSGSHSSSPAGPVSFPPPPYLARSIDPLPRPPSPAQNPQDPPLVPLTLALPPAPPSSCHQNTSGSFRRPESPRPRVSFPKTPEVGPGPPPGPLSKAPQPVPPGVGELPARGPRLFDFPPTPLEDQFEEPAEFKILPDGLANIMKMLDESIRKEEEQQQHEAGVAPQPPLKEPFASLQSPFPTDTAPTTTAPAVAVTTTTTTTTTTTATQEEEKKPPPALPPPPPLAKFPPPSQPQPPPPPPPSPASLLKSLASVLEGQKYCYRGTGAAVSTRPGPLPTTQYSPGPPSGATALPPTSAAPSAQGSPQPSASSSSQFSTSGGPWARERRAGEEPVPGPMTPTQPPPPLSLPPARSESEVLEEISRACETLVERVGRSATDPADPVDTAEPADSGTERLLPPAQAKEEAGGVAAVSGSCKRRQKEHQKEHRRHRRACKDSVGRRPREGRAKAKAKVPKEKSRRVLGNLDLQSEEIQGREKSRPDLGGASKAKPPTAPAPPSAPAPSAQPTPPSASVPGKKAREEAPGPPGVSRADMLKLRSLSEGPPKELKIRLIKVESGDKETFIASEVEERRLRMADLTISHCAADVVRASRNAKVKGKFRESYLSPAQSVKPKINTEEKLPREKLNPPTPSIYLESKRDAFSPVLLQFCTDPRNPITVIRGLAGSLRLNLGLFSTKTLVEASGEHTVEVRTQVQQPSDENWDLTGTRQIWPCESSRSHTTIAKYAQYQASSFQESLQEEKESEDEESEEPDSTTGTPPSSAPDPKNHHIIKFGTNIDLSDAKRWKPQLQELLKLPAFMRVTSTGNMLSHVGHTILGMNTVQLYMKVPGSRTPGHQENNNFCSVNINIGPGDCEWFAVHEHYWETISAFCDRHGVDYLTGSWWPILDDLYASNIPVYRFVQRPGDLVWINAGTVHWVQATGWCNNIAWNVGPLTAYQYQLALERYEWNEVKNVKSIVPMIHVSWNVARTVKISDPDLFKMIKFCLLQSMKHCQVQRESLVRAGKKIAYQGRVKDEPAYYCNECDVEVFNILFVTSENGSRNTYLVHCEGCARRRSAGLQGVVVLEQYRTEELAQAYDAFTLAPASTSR

[6] = tested on: VERO; experiment: Cell viability assay (MTS), antiproliferative activity; assay type: cell-based; details: Chlorocebus sabaeus, 72 h, Table 4
Method: (§1) To preliminarily profile the bioactivity of these compounds, we adopted a streamlined approach which involved screening against KDM6A at two concentrations and evaluating antiproliferative activity against three representative cell lines – MCF-7 (ER(+) BCa), MDA-MB-231 (TNBC BCa) and Vero (a non-transformed cell line as control).
(§2) The In vitro proliferation assay was performed as reported previously[15],[16]. Detailed description of the protocol used is included in the Supplementary Information.
(§3) Cell Viability Assay. All cell lines were purchased form ATCC (Manassas, VA), and they were routinely cultured in different media recommended by the supplier. MCF-7 cells were cultured in non-phenol red DMEM (Corning, Manassas, VA) fortified with 10% charcoal treated fetal bovine serum (FBS; Atlanta Biologicals, GA) and 0.2 mM glutamine (Corning, Manassas, VA), whereas MDA-MB-231, DU-145, and Vero were cultured in DMEM with 10% FBS. […] After 24 h incubation in 37 °C under 5% CO2, cells were treated with serially diluted ligands with final DMSO concentration of 1% and incubated for additional 72 h. MTS (CellTiter 96 Aqueous One Solution Cell Proliferation Assays, Promega, Madison, WI) was added to each well 2.5 h prior to recording the absorbance at 490 nm.

[7] = tested on: MDA-MB-231; experiment: as above; assay type: cell-based; details: Homo sapiens, 72 h, Table 4
Method: as §1, §2, §3

[8] = tested on: MCF-7; experiment: as above; assay type: cell-based; details: Homo sapiens, MCF7, 72 h, Table 4
Method: as §1, §2, §3

[9] = target: KDM3B (JMJD1B) (Homo sapiens, UniProt Q7LBC6); experiment: KDM cell-free assay (AlphaScreen, BPS Bioscience)
[10] = tested on: HP1-mediated heterochromatin gene repression in CiA:Oct4 embryonic stem cells; experiment: HP1-recruitment assay dose curve (CiA:Oct4, with CIP-rapamycin), flow cytometry; assay type: cell-based, mouse; details: 48 h with CIP-rapamycin recruitment of HP1; up to 10 µM
Description: To elucidate the effect of DFP-based KDM inhibitors on chromatin dynamics, we profiled them in an intracellular assay which measures heterochromatin formation speed. The chromatin in vivo assay (CiA) leverages chemical induced proximity (CIP) to recruit heterochromatin protein 1 (HP1) to a modified Oct4 locus. This reporter system is composed of tandem arrays of Gal4 and zinc finger DNA binding domains in the promoter of one allele of Oct4, where the gene was replaced by a nuclear eGFP reporter. Protein fusions of Gal4-FKBP and FRB-HP1 allow for direct chemical recruitment of HP1 to the CiA:Oct4 reporter locus upon addition of the chemical inducer of proximity (CIP)-rapamycin. After CIP-rapamycin addition, HP1 is recruited to the reporter locus and brings histone methyltransferase enzymes to the chromatin reporter resulting in the repressive H3K9me3 mark being deposited (Fig. 10A). H3K9me3 deposition is the signature mark of heterochromatin and is coupled with gene silencing and loss of GFP expression (Fig. 10B)[33]. Others have shown that H3K4me3 marked nucleosomes impede H3K9 methyltransferase activity. Thus, we postulate that the active H3K4me3 mark must be removed by KDM enzymes as part of the transformation from euchromatin to heterochromatin. Inhibition of KDMs, specifically those targeting H3K4me3, would result in a decrease in H3K9me3 accumulation, which would be measured in our assay as an increase in GFP positive cells.
To determine the effect of DFP-based KDM inhibitors on HP1-mediated gene repression, we treated CiA:Oct4 embryonic stem (ES) cells with doses of representative compounds ranging from 10 µM–250 nM for 48 h with CIP-rapamycin recruitment of HP1 (Fig. 10C). […] The percentage of GFP(+) cells was determined by flow cytometry as indicated in representative histograms (Supplemental Fig. S8).
Day 0, CiA:Oct4 N118/163 cells were grown in ES media and seeded at a density of 10,000 cells per well in 100 μL media (100,000 cells mL^−1) on gelatin coated 96 well plates. Day 1, culture media was aspirated and replaced with 100 µL ES media containing +/− 6 nM rapamycin. 10 µM, 5 µM, 2.5 µM, 1 µM, 500 nM, and 250 nM concentrations of compound or DMSO were added using a TTP Labtech Mosquito HTS liquid handler. Days 2, fresh ES media +/− rapamycin and compound were added as in Day 1. Day 3, cells were washed with PBS and trypsinized using 0.25% trypsin-EDTA. Trypsin was quenched with serum. Cells were resuspended by pipetting in preparation for flow cytometry analysis.
Flow cytometry data was acquired using the Intellicyt iQue Screener and analyzed with FlowJo software.
The CiA:Oct4 recruitment system in mouse embryonic stem cells contains Gal4 and Zinc finger DNA binding arrays and a downstream nuclear eGFP gene in place of a single Oct4 allele as previously described.^30 The CiA:Oct4 N118/N163 cell line containing viral integrations of N118 and N163 plasmids (N118- nLV EF-1α-Gal-FKBPx1-HA-PGK-Blast, N163- nLV EF-1α-HP1α (CS)-Frbx2(Frb+FrbWobb)-V5-PGK-Puro) was used for inhibition of HP1-mediated heterochromatin studies. All plasmids are freely available on addgene.
HP1-Recruitment Assay Dose Curve. Day 0, CiA:Oct4 N118/163 cells were grown in ES media and seeded at a density of 10,000 cells per well in 100 µL media (100,000 cells mL^-1) on gelatin coated 96 well plates. Day 1, culture media was aspirated and replaced with 100 µL ES media containing +/- 6 nM rapamycin. 10 µM, 5 µM, 2.5 µM, 1 µM, 500 nM, and 250 nM concentrations of compound or DMSO were added using a TTP Labtech Mosquito HTS liquid handler. Days 2, fresh ES media +/- rapamycin and compound were added as in Day 1. Day 3, cells were washed with PBS and trypsinized using 0.25% trypsin-EDTA. Trypsin was quenched with serum. Cells were resuspended by pipetting in preparation for flow cytometry analysis.
Flow Cytometry and Analysis.

Chain of KDM5C (Jarid1C) (P41229 whole entry): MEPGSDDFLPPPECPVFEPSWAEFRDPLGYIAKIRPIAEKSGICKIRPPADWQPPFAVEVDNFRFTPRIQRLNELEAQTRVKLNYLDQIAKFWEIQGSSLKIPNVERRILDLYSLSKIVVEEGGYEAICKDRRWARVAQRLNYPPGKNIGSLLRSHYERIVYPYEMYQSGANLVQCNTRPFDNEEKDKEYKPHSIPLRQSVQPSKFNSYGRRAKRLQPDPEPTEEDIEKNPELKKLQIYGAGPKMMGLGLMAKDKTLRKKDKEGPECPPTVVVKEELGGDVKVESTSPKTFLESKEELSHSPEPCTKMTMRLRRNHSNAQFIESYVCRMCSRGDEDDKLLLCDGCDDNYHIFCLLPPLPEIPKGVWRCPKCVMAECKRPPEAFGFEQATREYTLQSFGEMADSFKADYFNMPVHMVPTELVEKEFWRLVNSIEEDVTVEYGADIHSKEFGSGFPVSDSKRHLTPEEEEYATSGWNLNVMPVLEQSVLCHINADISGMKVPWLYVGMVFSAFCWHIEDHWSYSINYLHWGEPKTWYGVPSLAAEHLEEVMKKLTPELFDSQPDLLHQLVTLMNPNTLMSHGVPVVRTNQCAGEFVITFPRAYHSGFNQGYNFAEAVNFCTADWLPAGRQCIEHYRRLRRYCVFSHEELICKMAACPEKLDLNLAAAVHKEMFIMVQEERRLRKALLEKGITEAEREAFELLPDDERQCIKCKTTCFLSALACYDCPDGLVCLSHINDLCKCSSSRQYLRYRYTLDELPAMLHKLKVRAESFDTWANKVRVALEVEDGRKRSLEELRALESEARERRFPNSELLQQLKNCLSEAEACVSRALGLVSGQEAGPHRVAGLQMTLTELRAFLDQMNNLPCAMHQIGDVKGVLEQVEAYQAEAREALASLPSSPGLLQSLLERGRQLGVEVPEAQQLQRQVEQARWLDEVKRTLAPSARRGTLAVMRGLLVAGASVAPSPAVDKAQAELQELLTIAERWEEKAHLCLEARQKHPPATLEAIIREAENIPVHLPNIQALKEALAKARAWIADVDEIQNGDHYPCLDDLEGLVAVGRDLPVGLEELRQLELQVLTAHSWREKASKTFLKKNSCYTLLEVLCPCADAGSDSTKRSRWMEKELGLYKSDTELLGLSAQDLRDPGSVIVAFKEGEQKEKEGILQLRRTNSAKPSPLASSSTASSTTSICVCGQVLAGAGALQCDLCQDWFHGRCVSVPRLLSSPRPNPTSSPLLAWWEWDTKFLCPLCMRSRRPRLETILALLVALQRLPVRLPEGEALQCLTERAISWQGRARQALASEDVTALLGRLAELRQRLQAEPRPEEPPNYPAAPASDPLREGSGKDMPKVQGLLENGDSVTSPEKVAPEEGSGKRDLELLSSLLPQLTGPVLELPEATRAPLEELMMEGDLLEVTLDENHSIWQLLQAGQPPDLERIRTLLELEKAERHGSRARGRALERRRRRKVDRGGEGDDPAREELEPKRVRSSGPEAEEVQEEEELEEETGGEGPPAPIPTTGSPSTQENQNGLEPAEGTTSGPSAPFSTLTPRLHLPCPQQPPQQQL
Chain of KDM7B (PHF8) (Q9UPP1 whole entry): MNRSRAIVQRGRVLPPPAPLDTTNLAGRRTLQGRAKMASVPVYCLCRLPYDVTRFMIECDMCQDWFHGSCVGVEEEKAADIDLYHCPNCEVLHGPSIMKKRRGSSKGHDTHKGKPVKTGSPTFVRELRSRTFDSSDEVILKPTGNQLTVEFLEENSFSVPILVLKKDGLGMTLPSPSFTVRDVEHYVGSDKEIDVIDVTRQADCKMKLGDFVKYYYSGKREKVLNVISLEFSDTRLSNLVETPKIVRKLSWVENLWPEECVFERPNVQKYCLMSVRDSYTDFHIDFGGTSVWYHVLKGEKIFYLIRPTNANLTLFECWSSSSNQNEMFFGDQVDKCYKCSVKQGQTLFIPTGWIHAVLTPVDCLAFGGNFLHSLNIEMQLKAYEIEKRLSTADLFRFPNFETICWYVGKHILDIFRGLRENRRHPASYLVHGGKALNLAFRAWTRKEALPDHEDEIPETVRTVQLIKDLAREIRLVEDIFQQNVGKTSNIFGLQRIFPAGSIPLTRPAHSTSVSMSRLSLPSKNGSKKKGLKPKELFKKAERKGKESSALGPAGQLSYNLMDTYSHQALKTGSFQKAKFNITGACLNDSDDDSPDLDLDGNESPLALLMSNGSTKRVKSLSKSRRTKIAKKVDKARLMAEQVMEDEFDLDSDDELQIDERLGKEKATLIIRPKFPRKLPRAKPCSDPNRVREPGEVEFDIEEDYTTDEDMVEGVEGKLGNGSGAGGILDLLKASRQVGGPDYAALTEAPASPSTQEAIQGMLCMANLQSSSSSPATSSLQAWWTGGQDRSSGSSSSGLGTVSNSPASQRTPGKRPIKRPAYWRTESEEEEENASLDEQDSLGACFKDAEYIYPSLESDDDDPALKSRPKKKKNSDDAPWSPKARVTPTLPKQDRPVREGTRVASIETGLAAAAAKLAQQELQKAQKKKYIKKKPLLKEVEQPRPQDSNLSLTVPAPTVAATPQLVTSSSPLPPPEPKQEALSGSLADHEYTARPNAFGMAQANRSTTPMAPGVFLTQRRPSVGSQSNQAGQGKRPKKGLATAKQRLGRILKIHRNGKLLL

**Q.** Which IC50 [1] does the source give for `Cc1c(O)c(=O)ccn1C` [DFP, Deferiprone] here?
**A.** 15.6 µM

**Q.** What about the IC50 [2] of the same compound?
**A.** 5.6 µM

**Q.** What about the IC50 [3] of the same compound?
**A.** > 25 µM

**Q.** What about the IC50 [4] of the same compound?
**A.** > 25 µM

**Q.** What about the IC50 [5] of the same compound?
**A.** > 25 µM

**Q.** And the IC50 [6]?
**A.** 85.9 µM

**Q.** What about the IC50 [7] of the same compound?
**A.** 112 µM

**Q.** What about the IC50 [8] of the same compound?
**A.** 134 µM

**Q.** What about the IC50 [9] of the same compound?
**A.** > 25 µM

**Q.** What about the “inhibition of heterochromatin formation” value [10] of the same compound?
**A.** did not inhibit heterochromatin formation
